Laboratory results as given in BindingDB's records for doi:10.1021/acschembio.5b00755 (German Cancer Research Center (Dkfz), 2016).

Molecular target: Methionine aminopeptidase 2 (Homo sapiens, UniProt P50579)
Assay: Biochemical Assays
Conditions: pH 7.5
Experimental: Stock solutions for all assays were prepared in DMSO (10 mM) and stored at −20 °C. Assays were performed in 96 well plates (Greiner) at a total reaction volume of 100 μL. […] Then, the substrate Met-Gly-Met-Met was added to a final concentration of 400 μM. After an incubation period of 15 min (HsMetAP1), 20 min (EcMetAP), or 60 min (HsMetAP2) at 37 °C, the enzyme reactionwas stopped by adding 10 μL 4% trifluoroacetic acid (TFA), and the plate was centrifuged at 1000g for 10 min. Detection of the product Gly-Met-Met was performed by HPLC: C18 column (Dr. Maisch, ReproSil-Pur 120 ODS-3, 3 μm, 50 × 2 mm). An 80 μL injection volume was eluted with mobile phases A (H2O and 0.1% TFA, filtered, degasse

Chain of Methionine aminopeptidase 2 (P50579 whole entry): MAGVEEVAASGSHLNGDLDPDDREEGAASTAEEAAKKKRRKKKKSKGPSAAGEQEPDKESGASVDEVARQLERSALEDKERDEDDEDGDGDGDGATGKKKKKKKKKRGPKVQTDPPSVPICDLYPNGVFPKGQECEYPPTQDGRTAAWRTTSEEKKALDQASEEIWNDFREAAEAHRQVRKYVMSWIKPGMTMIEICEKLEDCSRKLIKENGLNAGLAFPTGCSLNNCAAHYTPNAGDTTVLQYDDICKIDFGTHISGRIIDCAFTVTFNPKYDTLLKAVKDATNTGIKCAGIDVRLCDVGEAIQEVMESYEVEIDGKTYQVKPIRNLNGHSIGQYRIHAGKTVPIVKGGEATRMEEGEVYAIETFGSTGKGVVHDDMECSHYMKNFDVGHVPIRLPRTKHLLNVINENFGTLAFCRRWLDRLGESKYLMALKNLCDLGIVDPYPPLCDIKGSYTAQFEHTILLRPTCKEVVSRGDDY

Compound	IC50
O=C(O[C@@H]1CC[C@]2(CO2)c2c1nnn2Cc1ccccc1)c1ccccc1 (relative stereo) [(2'R*,7R*)-3-benzyl-3,5,6,7-tetrahydrospiro [benzo[d][1,2,3]triazole-4,2'-oxiran]-7-yl benzoate (29a)]	1400 nM
N#Cc1cccc(Cn2nnc3c2C2(CCC3=O)CO2)c1 (centres undefined) [3-((7-oxo-6,7-dihydrospiro[benzo[d][1,2,3]triazole-4,2'-oxiran]-3(5H)-yl)methyl)benzonitrile (24)]	1100 nM
O=C(O[C@H]1CC[C@]2(CO2)c2c1nnn2Cc1ccccc1)c1ccccc1 (relative stereo) [(2'R*,7S*)-3-benzyl-3,5,6,7-tetrahydrospiro [benzo[d][1,2,3]triazole-4,2'-oxiran]-7-yl benzoate (29b)]	> 50000 nM
C=C1CCC(OC(=O)c2ccccc2)c2nnn(Cc3ccc(OC)cc3)c21 (centres undefined) [1-[(4-methoxyphenyl)methyl]-7-methylidene-4,5,6,7-tetrahydro-1H-1,2,3-benzotriazol-4-yl benzoate (16)]	> 50000 nM
COc1ccc(Cn2nnc3c2[C@]2(CC[C@H]3OC(=O)Nc3ccccc3)CO2)cc1 (relative stereo) [(2'R*,7R*)-3-(4-methoxybenzyl)-3,5,6,7-tetrahydrospiro[benzo[d][1,2,3]triazole-4,2'-oxiran]-7-yl phenylcarbamate (34)]	990 nM
COc1ccc(Cn2nnc3c2[C@]2(CC[C@@H]3OC(=O)c3ccccc3)CO2)cc1 [(2'R*,7S*)-3-(4-methoxybenzyl)-3,5,6,7-tetrahydrospiro[benzo[d][1,2,3]triazole-4,2'-oxiran]-7-yl benzoate (17b)]	35000 nM
COc1ccc(Cn2nnc3c2[C@]2(CC[C@H]3OC(=O)c3ccccc3)CO2)cc1 [(2'R*,7R*)-3-(4-methoxybenzyl)-3,5,6,7-tetrahydrospiro[benzo[d][1,2,3]triazole-4,2'-oxiran]-7-yl benzoate (17a)]	930 nM
Cc1ccccc1Cn1nnc2c1C1(CCC2=O)CO1 (centres undefined) [3-(2-methylbenzyl)-5,6-dihydrospiro[benzo[d][1,2,3]triazole-4,2'-oxiran]-7(3H)-one (23)]	2300 nM
CC(C)NC(=O)O[C@H]1CC[C@]2(CO2)c2c1nnn2Cc1ccccc1 (relative stereo) [(2'R*,7S*)-3-benzyl-3,5,6,7-tetrahydrospiro [benzo[d][1,2,3]triazole-4,2'-oxiran]-7-yl isopropylcarbamate (30b)]	46000 nM
O=C1CCC2(CO2)c2c1nnn2CC1CCCCC1 (centres undefined) [3-(cyclohexylmethyl)-5,6-dihydrospiro[benzo[d][1,2,3]triazole-4,2'-oxiran]-7(3H)-one (21)]	> 50000 nM
CC(C)NC(=O)O[C@@H]1CC[C@]2(CO2)c2c1nnn2Cc1ccccc1 (relative stereo) [(2'R*,7R*)-3-benzyl-3,5,6,7-tetrahydrospiro [benzo[d][1,2,3]triazole-4,2'-oxiran]-7-yl isopropylcarbamate (30a)]	780 nM
O=C1CCC2(CO2)c2c1nnn2Cc1ccccc1 (centres undefined) [3-benzyl-5,6-dihydrospiro[benzo[d][1,2,3]triazole-4,2'-oxiran]-7(3H)-one (22)]	2900 nM

Molecules with a lower IC50, results first:

IC50	Compound
440 nM	O=C1CCC2(CO2)c2c1nnn2Cc1ccc(C(F)(F)F)cc1 (centres undefined) [3-(4-(trifluoromethyl)benzyl)-5,6-dihydrospiro[benzo[d][1,2,3]triazole-4,2'-oxiran]-7(3H)-one (28)]
600 nM	COc1ccc(Cn2nnc3c2[C@]2(CC[C@H]3OC(=O)NCC(C)C)CO2)cc1 (relative stereo) [(2'R*,7R*)-3-(4-methoxybenzyl)-3,5,6,7-tetrahydrospiro[benzo[d][1,2,3]triazole-4,2'-oxiran]-7-yl isobutylcarbamate (32)]
590 nM	O=C1CCC2(CO2)c2c1nnn2Cc1ccc2ccccc2c1 (centres undefined) [3-(naphthalen-2-ylmethyl)-5,6-dihydrospiro[benzo[d][1,2,3]triazole-4,2'-oxiran]-7(3H)-one (25)]
520 nM	O=C1CCC2(CO2)c2c1nnn2Cc1ccc(Cl)cc1 (centres undefined) [3-(4-chlorobenzyl)-5,6-dihydrospiro[benzo[d][1,2,3]triazole-4,2'-oxiran]-7(3H)-one (27)]
600 nM	COc1ccc(Cn2nnc3c2[C@]2(CC[C@H]3NC(=O)OCC(C)C)CO2)cc1 [isobutyl ((2'R*,7R*)-3-(4-methoxybenzyl)-3,5,6,7-tetrahydrospiro[benzo[d][1,2,3]triazole-4,2'-oxiran]-7-yl)carbamate (35)]
460 nM	COc1ccc(Cn2nnc3c2C2(CCC3=O)CO2)cc1 (centres undefined) [3-(4-methoxybenzyl)-5,6-dihydrospiro[benzo[d][1,2,3]triazole-4,2'-oxiran]-7(3H)-one (14)]
250 nM	O=C1CCC2(CO2)c2c1nnn2Cc1ccc(F)cc1 (centres undefined) [3-(4-fluorobenzyl)-5,6-dihydrospiro[benzo[d][1,2,3]triazole-4,2'-oxiran]-7(3H)-one (26)]
